Legend:
PACE4 mRNA [1] = assay: Electrophoresis gel of aggrecan degradation products in TNF/OSM treated cartilage explants; type: cell-based, human; conditions: 100 nM dsRNA, vs controls, FIG. 2
Experimental: FIG. 2 depicts an electrophoresis gel showing aggrecan-degradation products in untreated (lane 1), TNF/OSM treated control (lane 2) and TNF/OSM treated, PACE4 siRNA treated cartilage explants; and
(§1) The sequence CGGCAAUGAUUAUGACCCAtt (SEQ ID NO. 2) was selected as a sense strand for dsRNA. The corresponding antisense strand, UGGGUCAUAAUCAUUGCCGtt, (SEQ ID NO. 3) was also selected. dsRNA was synthesized commercially (Ambion, Austin, Tex. 78744-1832 USA) and 100 nM was introduced into cultured human chondrocytes and human cartilage stimulated with TNF-α and Oncostatin M (OSM). It is known that stimulation of cartilage or chondrocytes with TNF-α and OSM will induce cartilage degradation and upregulate aggrecanase. Nonsense dsRNA, that is, dsRNA with the same […], but scrambled in sequence, were introduced into cultured human chondrocytes and human cartilage explants as controls. The control groups are not expected to induce RNAi, since the dsRNA is not expected to produce an inhibitory effect on mRNA. […] 2 and SEQ ID NO. 3.
Referring now to FIG. 2, the aggrecanase mediated cleavage of aggrecan, shown by the aggrecan derived peptide neopitope fragment AGEG (SEQ ID NO. 10) and the aggrecan derived peptide neopepitope fragment ARGS (SEQ ID NO. 11) was reduced with interfering dsRNA, as compared to controls.

PACE4 mRNA [2] = assay: Aggrecanase activity in TNF-α and OSM stimulated cultured human chondrocytes after PACE4 RNAi; type: cell-based; conditions: 100 nM dsRNA; human chondrocytes stimulated with TNF-α and OSM; vs stimulated controls; FIG. 1
Experimental: as §1

PACE4 mRNA [3] = assay: Glycosaminoglycan (GAG) release from TNF/OSM treated cartilage explants into the supernatant; type: cell-based, human; conditions: 100 nM dsRNA, vs nonsense dsRNA, FIG. 3
Source text: FIG. 3 is a bar graph showing glycosaminoglycan (GAG) release from cartilage explants into the supernatant is reduced in TNF/OSM treated cartilage explants with the addition of siRNA of SEQ ID NO. 2 and SEQ ID NO. 3 (narrow shaded bar) as compared with normal control (unshaded bar) and TNF/OSM treated cartilage explants with nonsense dsRNA.
as §1
Glycosaminoglycan (GAG) release from proteoglycan and depressed proteoglycan synthesis are thought to be correlated with cartilage destruction in arthritis. […]

siRNA of SEQ ID NO. 2 and SEQ ID NO. 3: dsRNA: sense strand CGGCAAUGAUUAUGACCCAtt (SEQ ID NO. 2), antisense strand UGGGUCAUAAUCAUUGCCGtt (SEQ ID NO. 3); inhibits PACE4 mRNA (sense CGGCAAUGAUUAUGACCCATT; antisense UGGGUCAUAAUCAUUGCCGTT; dsRNA with lower-case tt overhangs, chemistry of tt not given here, further chemistry not given here)
aggrecanase mediated cleavage of aggrecan (neoepitope fragments AGEG and ARGS) (PACE4 mRNA [1]): reduced
reduction in aggrecanase activity (PACE4 mRNA [2]): greater than eighty percent reduction
glycosaminoglycan (GAG) release from cartilage explants into the supernatant (PACE4 mRNA [3]): reduced

— patent US20050090466A1, “Inhibitors of PACE4 for the treatment of arthritis” (Pharmacia & Upjohn Company LLC, priority 2003, published 2005)
